Measured values: PubChem BioAssay AID1919004 (Molecular Pharmacology Branch, DTP, NCI, 2023)

Test system: 883617-216-R-J1-PDC complex spheroids, growth, % test/control
Assay: Anticancer human tumor 883617-216-R-J1-PDC patient-derived bladder carcinoma cell line growth inhibition [AhR]
Details: for IC50: curve of first compound; for viability, T/C: stronger effect = lower value
In short: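 Agents were dosed in half-log steps down from roughly clinical Cmax, or from 10 microM where Cmax was unknown, alone and with AhR antagonists. Read-out: percent test/control growth of tumor spheroids containing HUVEC and MSC stromal cells.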

[1] = second compound 0.1 µM, first compound 0.0316 µM
[2] = second compound 0.1 µM, first compound 0.1 µM
[3] = second compound 0.316 µM, first compound 0.0316 µM
[4] = second compound 0.316 µM, first compound 0.1 µM
[5] = second compound 1 µM, first compound 0.0316 µM
[6] = second compound 1 µM, first compound 0.1 µM
[7] = second compound 3.16 µM, first compound 0.0316 µM
[8] = second compound 3.16 µM, first compound 0.1 µM
[9] = second compound 10 µM, first compound 0.0316 µM
[10] = second compound 10 µM, first compound 0.1 µM
[11] = second compound 0.1 µM, first compound 0.316 µM
[12] = second compound 0.1 µM, first compound 1 µM
[13] = second compound 0.1 µM, first compound 3.16 µM
[14] = second compound 0.1 µM, first compound 10 µM
[15] = second compound 0.316 µM, first compound 0.316 µM
[16] = second compound 0.316 µM, first compound 1 µM
[17] = second compound 0.316 µM, first compound 3.16 µM
[18] = second compound 0.316 µM, first compound 10 µM
[19] = second compound 1 µM, first compound 0.316 µM
[20] = second compound 1 µM, first compound 1 µM
[21] = second compound 1 µM, first compound 3.16 µM
[22] = second compound 1 µM, first compound 10 µM
[23] = second compound 3.16 µM, first compound 0.316 µM
[24] = second compound 3.16 µM, first compound 1 µM
[25] = second compound 3.16 µM, first compound 3.16 µM
[26] = second compound 3.16 µM, first compound 10 µM
[27] = second compound 10 µM, first compound 0.316 µM
[28] = second compound 10 µM, first compound 1 µM
[29] = second compound 10 µM, first compound 3.16 µM
[30] = second compound 10 µM, first compound 10 µM
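Note: exposure lasted 7 days after dosing on day 3 of spheroid growth.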

Work on `CC[C@@]1(O)C(=O)OCc2c1cc1n(c2=O)Cc2cc3c(CN(C)C)c(O)ccc3nc2-1` + Cc1cncc(-c2nc(NCCc3c[nH]c4ccccc34)c3ncn(C(C)C)c3n2)c1 yielded an IC50 (second compound 0.1 µM) of over 100 nM, an IC50 (second compound 0.316 µM) of over 100 nM and an IC50 (second compound 1 µM) of over 100 nM. It also gave an IC50 (second compound 3.16 µM) of over 100 nM, an IC50 (second compound 10 µM) of under 0.316 nM and a viability, T/C (second compound 0.1 µM, first compound 0.000316 µM) of 76.2%. The viability, T/C (second compound 0.1 µM, first compound 0.001 µM) was 75.1%, the viability, T/C (second compound 0.1 µM, first compound 0.00316 µM) was 79.8% and the viability, T/C (second compound 0.1 µM, first compound 0.01 µM) was 71%. The viability, T/C [1] was 69.8%, the viability, T/C [2] was 74.3% and the viability, T/C (second compound 0.316 µM, first compound 0.000316 µM) was 86.3%. The viability, T/C (second compound 0.316 µM, first compound 0.001 µM) was 80.7%, the viability, T/C (second compound 0.316 µM, first compound 0.00316 µM) was 74.3% and the viability, T/C (second compound 0.316 µM, first compound 0.01 µM) was 79.4%. For the same compound, the viability, T/C [3] was 68.1%, the viability, T/C [4] was 64.7% and the viability, T/C (second compound 1 µM, first compound 0.000316 µM) was 93.5%. For the same compound, the viability, T/C (second compound 1 µM, first compound 0.001 µM) was 93.9%, the viability, T/C (second compound 1 µM, first compound 0.00316 µM) was 83.9% and the viability, T/C (second compound 1 µM, first compound 0.01 µM) was 85.6%. It also gave a viability, T/C [5] of 88.9%, a viability, T/C [6] of 76.7% and a viability, T/C (second compound 3.16 µM, first compound 0.000316 µM) of 96.6%. The viability, T/C (second compound 3.16 µM, first compound 0.001 µM) was 84.6%, the viability, T/C (second compound 3.16 µM, first compound 0.00316 µM) was 89.7% and the viability, T/C (second compound 3.16 µM, first compound 0.01 µM) was 91.9%. It also gave a viability, T/C [7] of 84.6%, a viability, T/C [8] of 73.1% and a viability, T/C (second compound 10 µM, first compound 0.000316 µM) of 45.7%. It also gave a viability, T/C (second compound 10 µM, first compound 0.001 µM) of 47.8%, a viability, T/C (second compound 10 µM, first compound 0.00316 µM) of 47.9% and a viability, T/C (second compound 10 µM, first compound 0.01 µM) of 46.8%. For the same compound, the viability, T/C [9] was 35.4% and the viability, T/C [10] was 32.1%.

`COc1cc(C2c3cc4c(cc3C(OC3OC5COC(C)OC5C(O)C3O)C3COC(=O)C23)OCO4)cc(OC)c1O` (stereo not given) + Cc1cncc(-c2nc(NCCc3c[nH]c4ccccc34)c3ncn(C(C)C)c3n2)c1 showed an IC50 (second compound 0.1 µM) of over 10000 nM, an IC50 (second compound 0.316 µM) of over 10000 nM and an IC50 (second compound 1 µM) of over 10000 nM. The IC50 (second compound 3.16 µM) was over 10000 nM, the IC50 (second compound 10 µM) was 68.8 nM and the viability, T/C [1] was 77.3%. For the same compound, the viability, T/C [2] was 81.3%, the viability, T/C [11] was 70% and the viability, T/C [12] was 66.8%. For the same compound, the viability, T/C [13] was 69.6%, the viability, T/C [14] was 57.4% and the viability, T/C [3] was 84.9%. For the same compound, the viability, T/C [4] was 81.1%, the viability, T/C [15] was 73.6% and the viability, T/C [16] was 65.3%. For the same compound, the viability, T/C [17] was 64.1%, the viability, T/C [18] was 60.9% and the viability, T/C [5] was 91.4%. The viability, T/C [6] was 86.4%, the viability, T/C [19] was 78.7% and the viability, T/C [20] was 71.5%. For the same compound, the viability, T/C [21] was 81.4%, the viability, T/C [22] was 64.7% and the viability, T/C [7] was 89.9%. The viability, T/C [8] was 89%, the viability, T/C [23] was 80.1% and the viability, T/C [24] was 79%. The viability, T/C [25] was 70%, the viability, T/C [26] was 65.6% and the viability, T/C [9] was 51.4%. For the same compound, the viability, T/C [10] was 50.3%, the viability, T/C [27] was 49.9% and the viability, T/C [28] was 39.1%. For the same compound, the viability, T/C [29] was 41.5% and the viability, T/C [30] was 45.5%.

Compound `Nc1ccn(C2OC(CO)C(O)C2(F)F)c(=O)n1` (stereo not given) + Cc1cncc(-c2nc(NCCc3c[nH]c4ccccc34)c3ncn(C(C)C)c3n2)c1 has an IC50 (second compound 0.1 µM) of under 31.6 nM, an IC50 (second compound 0.316 µM) of under 31.6 nM and an IC50 (second compound 1 µM) of under 31.6 nM. The IC50 (second compound 3.16 µM) was 70.8 nM, the IC50 (second compound 10 µM) was under 31.6 nM and the viability, T/C [1] was 32.6%. For the same compound, the viability, T/C [2] was 39.7%, the viability, T/C [11] was 43.1% and the viability, T/C [12] was 41.3%. It also gave a viability, T/C [13] of 44%, a viability, T/C [14] of 38.9% and a viability, T/C [3] of 34.5%. For the same compound, the viability, T/C [4] was 38.8%, the viability, T/C [15] was 44.9% and the viability, T/C [16] was 38.4%. It also gave a viability, T/C [17] of 39.5%, a viability, T/C [18] of 39.4% and a viability, T/C [5] of 46.1%. It also gave a viability, T/C [6] of 33.8%, a viability, T/C [19] of 39.3% and a viability, T/C [20] of 37.5%. For the same compound, the viability, T/C [21] was 41.9%, the viability, T/C [22] was 43.4% and the viability, T/C [7] was 71.3%. The viability, T/C [8] was 39.3%, the viability, T/C [23] was 40.6% and the viability, T/C [24] was 41.2%. For the same compound, the viability, T/C [25] was 43.5%, the viability, T/C [26] was 39.1% and the viability, T/C [9] was 33.1%. The viability, T/C [10] was 16.4%, the viability, T/C [27] was 13.5% and the viability, T/C [28] was 10.9%. The viability, T/C [29] was 15.8% and the viability, T/C [30] was 18%.
